Measurements: US11472862B2, “IL13Rα2 peptide and its uses” (priority 2017, dated 2022)
Non-standard residues stand in square brackets, D forms with d. No end group written: not given here.

How the values were obtained:
[1] = test system: KM12SM cells; experiment: Cell invasion assay through Matrigel; format: cell-based, human; settings: with IL-13, peptide 1 μg/ml, 48 h
Procedure: (§1) Recombinant human IL13 was used at […] (13) and was purchased from PeproTech. IL13Rα2-derived peptides (IL13Rα2D1: GSETWKTIITKN, SEQ ID NO: 3; IL13Rα2D1S: WKTIITKN, SEQ ID NO: 1; IL13Rα2Nter: FEIVDPGY, SEQ ID NO: 14; IL13Rα2Cter WSIPLGPI, SEQ ID NO: 15; IL13Rα2D1S-1A: WATIITKN, SEQ ID NO: 16; IL13Rα2D1S-2A WKAIITKN, SEQ ID NO: 17; IL13Rα2D1S-3A WKTAITKN, SEQ ID NO: 18; IL13Rα2D1S-4A WKTIATKN, SEQ ID NO: 19; IL13Rα2D1S-5A WKTIIAKN, SEQ ID NO: 20; IL13Rα2D1S-6A WKTIITAN, SEQ ID NO: 21) were synthesized using solid phase chemistry with a Focus XC instrument (AAPPtec). The enantio version D-IL13Rα2D1 (D-D1) peptide (GSETWKTIITKN, SEQ ID NO: 3) composed entirely by D-amino acids was purchased from Proteogenix (Schiltigheim, France). […]
(§2) Binding of D1 peptide to IL-13 was monitored by surface plasmon resonance on a BIAcore 3000 instrument (BIAcore Inc, Switzerland). […] The interaction between D1 peptide and the immobilized IL13 was determined by changes in the RU at different D1 concentrations. […] Cell proliferation was determined by absorbance at 560 nm and comparison with control cells collected ab initium. […] Bound cells were lysed with 1% SDS in PBS, and the extent of the adhesion was quantified using a fluorescence analyzer (POLARstar Galaxy, BMG Labtechnologies). […] Effective migration speed was calculated from the distance covered by cells in 24 h in each side of the wound. […]

[2] = test system: U251 glioblastoma xenografts; experiment: Glioblastoma xenograft tumour growth; format: in vivo, mice; settings: 3 μg/100 μL PBS subcutaneously, 7 doses during 15 days, start at 100 mm^3; p<0.01 vs control
Procedure: (§3) FIG. 6. D1 and D-D1 peptides increase the survival of mice inoculated with metastatic tumor cells and inhibits glioblastoma xenografts. (A) Liver homing experiment. Metastatic KM12SM cells were treated with the IL13 and/or D1 peptide and inoculated in spleen of nude mice. […] (C) 10^7 U251 cells were inoculated subcutaneously into the flanks of mice. Eleven days after cell inoculation, when tumours reached a size of 100 mm^3, mice were treated with D-D1 peptide (3 μg/100 μL of PBS) subcutaneously or with saline solution in a total of 7 doses during 15 days. Tumours were measured every 2-3 days. **p<0.01 vs control.
Additionally, the capacity of the D-D1 peptide to inhibit tumour growth in U251 glioblastoma xenografts was tested. For glioblastoma xenografts, 10^7 U251 cells were inoculated subcutaneously into the flanks of mice. Eleven days after cell inoculation, when tumours reached a size of 100 mm^3, mice were treated with D-D1 peptide (3 μg/100 μL of PBS) subcutaneously or with saline solution in a total of 7 doses during 15 days. Tumours were measured every 2-3 days.

[3] = test system: KM12SM cells; experiment: Cell adhesion assay to Matrigel; format: cell-based, human; settings: with IL-13, peptide 1 μg/ml
Procedure: as §1, §2

[4] = test system: KM12SM cells; experiment: MTT proliferation assay; format: cell-based, human; settings: with IL-13, peptide 1 μg/ml, 48 h
Procedure: as §1, §2

[5] = test system: KM12SM cells; experiment: Metastasis experiment in nude mice, Kaplan-Meier survival after intrasplenic inoculation; format: in vivo, Swiss nude mice
Procedure: as §3
Binding of D1 peptide to IL-13 was monitored by surface plasmon resonance on a BIAcore 3000 instrument (BIAcore Inc, Switzerland). IL-13 was covalently amino coupled to a CM-5 sensor chip. An immobilization level of 7700 RU was obtained. A nonderivatized flow cell was used as a control. The interaction between D1 peptide and the immobilized IL13 was determined by changes in the RU at different D1 concentrations. Cell Signaling Analysis Cancer cells were incubated 3 h in DMEM without serum, detached with 2 mM EDTA, washed and treated with IL-13 (PeproTech) (10 ng/ml) for different times in presence or absence of IL13Rα2D1 peptide. Then, cells were lysed with lysis buffer (1% Igepal, 50 mM Tris-HCl, 100 mM NaCl, 2 mM MgCl2, 10% glycerol, protease inhibitors (Complete Mini, Roche) and phosphatase inhibitor cocktails 2 and 3 (Sigma-Aldrich)). Protein extracts (60 μg) were separated in SDS-PAGE and transferred to nitrocellulose membranes, which were incubated with primary antibodies, washed and incubated with HRP-conjugated secondary antibodies (Sigma-Aldrich). […] Proliferation Assays Cancer cells were seeded at 1×10^4 cells/well on 96-well plates and were incubated for 48 h at 37° C. in DMEM with 0.5% serum in presence of IL-13 (10 ng/ml) and the indicated peptides, followed by 1 h incubation with Thyazolyl Blue Tretrazolium Bromide (MTT) (0.6 mg/mL) (Sigma-Aldrich). Cell proliferation was determined by absorbance at 560 nm and comparison with control cells collected ab initium. Cell Adhesion Assays Cancer cells were starved for 3 h, labeled with BCECF-AM (Molecular Probes), detached with EDTA/PBS and incubated in DMEM in the presence of IL-13 and the indicated peptides for 10 min at 37° C. Then, 6×10^4 cells in 100 μL were added to 96-well plates previously coated with Matrigel (0.4 μg/mm^2), and the plates were incubated for 25 min at 37° C. Subsequently, non-adhered cells were removed by three washes with DMEM. Bound cells were lysed with 1% SDS in PBS, and the extent of the adhesion was quantified using a fluorescence analyzer (POLARstar Galaxy, BMG Labtechnologies). Wound Healing Assays Cancer cells were cultured to confluence in Matrigel-coated plates (0.4 μg/mm^2), and a 1 mm-wide wound was done across the monolayer, which was incubated in serum-free medium alone or with IL-13 (10 ng/mL), in the presence or absence of the indicated peptides. Pictures were taken immediately and after 24 h culture at 37° C. after the injury. Effective migration speed was calculated from the distance covered by cells in 24 h in each side of the wound. Invasion Assays For Matrigel invasion assays, 6×10^4 cells were loaded onto […] pore-size filters coated with […] of Matrigel (1:3 dilution; BD Biosciences) in Transwell plates (Costar) in presence of the indicated peptides. The lower compartment of the invasion chamber was filled with IL-13 (10 ng/mL). After 48 h, non-invading cells were removed from the upper surface of the filter, and cells that migrated through the filter were fixed with 4% paraformaldehyde (Sigma-Aldrich), stained with crystal violet and counted under a microscope. […] Swiss nude mice (Charles River) (n=5 per condition) were inoculated in the spleen with 1.5×10^6 KM12SM cells in 0.1 mL PBS in presence or absence of the indicated peptides (1 μg/mL). A day after inoculation, mice were subjected to removal of the spleen. […]

GSETWKTIITKN (G[dS][dE][dT][dW][dK][dT][dI][dI][dT][dK][dN]) [D-D1 peptide]
Inhibition of IL-13-stimulated cell invasion through Matrigel [1]: inhibit cell adhesion, invasion and proliferation
Tumour growth of U251 xenografts [2]: significant growth arrest accompanied by a regression in the tumour size
Inhibition of IL-13-stimulated cell adhesion to Matrigel [3]: inhibit cell adhesion, invasion and proliferation
Inhibition of IL-13-stimulated cell proliferation (MTT) [4]: inhibit cell adhesion, invasion and proliferation
Mice surviving the experimental endpoint, without further treatment ([5]; KM12SM intrasplenic, cells with peptide 1 μg/ml only, n=5 per condition): one
Metastatic lesions in surviving mice, without further treatment ([5]; KM12SM intrasplenic, cells with peptide only): without lesions
Mice surviving the experimental endpoint, with peptide treatment ([5]; KM12SM intrasplenic, cells with peptide plus 7 i.v. doses of 3 μg, n=5 per condition): two
Metastatic lesions at necropsy in surviving mice, with peptide treatment ([5]; KM12SM intrasplenic, cells with peptide plus i.v. treatment): no metastatic lesions at the necropsy
Mouse survival, cells inoculated with peptide plus intravenous peptide treatment ([5]; KM12SM intrasplenic, peptide 1 μg/ml with the cells, then 7 i.v. doses of 3 μg over 2 weeks, n=5): remarkable increase in survival
Mouse survival, cells inoculated with peptide, without further treatment ([5]; KM12SM intrasplenic, peptide 1 μg/ml with the cells, n=5): significant increase
Change of survival of treated mice ([5]; KM12SM metastasis model, treated mice versus control): more than doubling the survival
